Assay results published in the CheMixHub viscosity set.
± gives the uncertainty stated by the source.

Experiment: xn = mol fraction of the nth substance listed

CCCOC(C)=O + CCCCCCCCO
viscosity [mPa·s], 101 kPa
Conditions | x2 = 0.075 | x2 = 0.1542 | x2 = 0.2382 | x2 = 0.3272 | x2 = 0.4218 | x2 = 0.5225 | x2 = 0.6299 | x2 = 0.7448 | x2 = 0.8678
298.15 K | 0.692 ± 0.042 | 0.851 ± 0.051 | 1.053 ± 0.063 | 1.316 ± 0.079 | 1.666 ± 0.1 | 2.143 ± 0.13 | 2.823 ± 0.17 | 3.811 ± 0.23 | 5.28 ± 0.32
303.15 K | 0.638 ± 0.038 | 0.776 ± 0.047 | 0.955 ± 0.058 | 1.185 ± 0.071 | 1.488 ± 0.09 | 1.897 ± 0.11 | 2.47 ± 0.15 | 3.302 ± 0.2 | 4.526 ± 0.27
308.15 K | 0.584 ± 0.035 | 0.705 ± 0.043 | 0.862 ± 0.052 | 1.061 ± 0.064 | 1.323 ± 0.08 | 1.671 ± 0.1 | 2.154 ± 0.13 | 2.848 ± 0.17 | 3.868 ± 0.23
313.15 K | 0.533 ± 0.032 | 0.638 ± 0.038 | 0.774 ± 0.047 | 0.95 ± 0.057 | 1.177 ± 0.071 | 1.475 ± 0.089 | 1.885 ± 0.11 | 2.468 ± 0.15 | 3.326 ± 0.2

ClC(Cl)(Cl)Cl + CCCCCCCO
viscosity [mPa·s], 101 kPa
Conditions | 298.15 K | 308.15 K | 318.15 K
x2 = 0.0559 | 0.969 ± 0.009 | 0.832 ± 0.008 | 0.725 ± 0.007
x2 = 0.07 | 0.982 ± 0.026 | – | –
x2 = 0.13 | 1.102 ± 0.029 | – | –
x2 = 0.147 | 1.151 ± 0.011 | 1.004 ± 0.01 | 0.867 ± 0.008
x2 = 0.19 | 1.237 ± 0.032 | – | –
x2 = 0.25 | 1.402 ± 0.037 | – | –
x2 = 0.2529 | 1.453 ± 0.015 | 1.227 ± 0.012 | 1.052 ± 0.01
x2 = 0.3189 | – | 1.321 ± 0.014 | 1.096 ± 0.01
x2 = 0.3828 | 1.836 ± 0.019 | 1.489 ± 0.014 | 1.231 ± 0.012
x2 = 0.47 | 2.175 ± 0.057 | – | –
x2 = 0.57 | 2.716 ± 0.071 | – | –
x2 = 0.6371 | 3.08 ± 0.028 | 2.329 ± 0.022 | 1.851 ± 0.017
x2 = 0.67 | 3.302 ± 0.086 | – | –
x2 = 0.7713 | 3.949 ± 0.036 | 2.943 ± 0.027 | 2.256 ± 0.021
x2 = 0.816 | 4.238 ± 0.038 | 3.167 ± 0.029 | 2.422 ± 0.022
x2 = 0.84 | 4.527 ± 0.12 | – | –

ClC(Cl)(Cl)Cl + CCCCCCO
viscosity [mPa·s], 101 kPa
Conditions | 298.15 K | 308.15 K | 318.15 K
x2 = 0.0092 | 0.909 ± 0.009 | 0.786 ± 0.008 | 0.691 ± 0.007
x2 = 0.0374 | 0.941 ± 0.009 | 0.817 ± 0.008 | 0.71 ± 0.007
x2 = 0.07 | 0.961 ± 0.025 | – | –
x2 = 0.0912 | 1 ± 0.01 | 0.865 ± 0.008 | 0.745 ± 0.007
x2 = 0.14 | 1.058 ± 0.028 | – | –
x2 = 0.1545 | 1.11 ± 0.01 | 0.938 ± 0.009 | 0.806 ± 0.008
x2 = 0.2095 | 1.197 ± 0.011 | 1.008 ± 0.01 | 0.861 ± 0.008
x2 = 0.21 | 1.167 ± 0.031 | – | –
x2 = 0.27 | 1.299 ± 0.034 | – | –
x2 = 0.293 | 1.368 ± 0.013 | 1.127 ± 0.011 | 0.942 ± 0.009
x2 = 0.3554 | 1.533 ± 0.014 | 1.255 ± 0.012 | 1.046 ± 0.01
x2 = 0.496 | 1.965 ± 0.018 | 1.564 ± 0.015 | 1.273 ± 0.012
x2 = 0.5 | 1.931 ± 0.05 | – | –
x2 = 0.6 | 2.317 ± 0.06 | – | –
x2 = 0.6252 | 2.531 ± 0.023 | 1.957 ± 0.018 | 1.548 ± 0.015
x2 = 0.69 | 2.737 ± 0.071 | – | –
x2 = 0.7459 | 3.091 ± 0.028 | 2.344 ± 0.022 | 1.814 ± 0.017
x2 = 0.86 | 3.57 ± 0.093 | – | –
x2 = 0.8652 | 3.83 ± 0.035 | 2.863 ± 0.026 | 2.202 ± 0.02

ClC(Cl)(Cl)Cl + CCCCCO
viscosity [mPa·s], 101 kPa
Conditions | x2 = 0.0207 | x2 = 0.0826 | x2 = 0.3114 | x2 = 0.4575 | x2 = 0.5771 | x2 = 0.8017
298.15 K | 0.912 ± 0.009 | 0.971 ± 0.009 | 1.306 ± 0.012 | 1.62 ± 0.015 | 1.884 ± 0.018 | 2.761 ± 0.025
308.15 K | 0.798 ± 0.008 | 0.84 ± 0.008 | 1.03 ± 0.01 | 1.241 ± 0.012 | 1.488 ± 0.014 | 2.103 ± 0.02
318.15 K | 0.708 ± 0.007 | 0.741 ± 0.007 | 0.886 ± 0.009 | 1.037 ± 0.01 | 1.199 ± 0.011 | 1.647 ± 0.015

CCOC(=O)c1ccccc1O + CCCCCOC(C)=O
Conditions | viscosity [mPa·s]
298.15 K, 101 kPa, x2 = 0.5 | 1.045 ± 0.01

COc1ccc(C)cc1 + CCCCCOC(C)=O
Conditions | viscosity [mPa·s]
298.15 K, 101 kPa, x1 = 0.5 | 0.8602 ± 0.0085

COc1cccc(C)c1 + CCCCCOC(C)=O
Conditions | viscosity [mPa·s]
298.15 K, 101 kPa, x1 = 0.5 | 0.8784 ± 0.0087

CCCC(C)=O + CCCCN
303.15 K, 101.33 kPa
Conditions | viscosity [mPa·s]
x2 = 0.1 | 0.608 ± 0.017
x2 = 0.1974 | 0.752 ± 0.021
x2 = 0.3754 | 0.936 ± 0.026
x2 = 0.5189 | 1.023 ± 0.028
x2 = 0.6418 | 1.061 ± 0.029
x2 = 0.7158 | 0.949 ± 0.026
x2 = 0.8252 | 0.825 ± 0.023
x2 = 0.8978 | 0.709 ± 0.02

CCN(CC)CC + CCCCN
viscosity [mPa·s], 101.33 kPa
Conditions | x1 = 0.1038 | x1 = 0.2009 | x1 = 0.4065 | x1 = 0.5021 | x1 = 0.5996 | x1 = 0.801 | x1 = 0.8898
303.15 K | 0.4186 ± 0.0053 | 0.4019 ± 0.0052 | 0.3761 ± 0.0051 | 0.3681 ± 0.0051 | 0.3611 ± 0.005 | 0.357 ± 0.005 | 0.3569 ± 0.005
313.15 K | 0.3692 ± 0.0051 | 0.3555 ± 0.005 | 0.3345 ± 0.0049 | 0.329 ± 0.0049 | 0.3244 ± 0.0049 | 0.3216 ± 0.0049 | 0.3228 ± 0.0049
